The test concerns the target human F508del-CFTR (Homo sapiens, UniProt P13569, DEL508-508). The test is described as follows: F508del-CFTR cell surface expression (corrector activity), DiscoveRx ß-galactosidase complementation chemiluminescence assay in recombinant U2OS cell line.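 On all read-outs here: U2OS cells co-expressing ProLink-tagged F508del-CFTR and a membrane-anchored enzyme acceptor, where more surface CFTR restores β-galactosidase activity measured by chemiluminescence.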 As to conditions: U2OS cell line, 16h compound incubation; for EC50: EC50, F508del-CFTR cell surface expression, geomean values; for Emax: U2OS, in relation to the Emax of the corrector lumacaftor (=100%), arithmetic mean values.

Structures are written as SMILES.

Sequence of human F508del-CFTR (P13569 with tags, fused parts or gaps DEL508-508): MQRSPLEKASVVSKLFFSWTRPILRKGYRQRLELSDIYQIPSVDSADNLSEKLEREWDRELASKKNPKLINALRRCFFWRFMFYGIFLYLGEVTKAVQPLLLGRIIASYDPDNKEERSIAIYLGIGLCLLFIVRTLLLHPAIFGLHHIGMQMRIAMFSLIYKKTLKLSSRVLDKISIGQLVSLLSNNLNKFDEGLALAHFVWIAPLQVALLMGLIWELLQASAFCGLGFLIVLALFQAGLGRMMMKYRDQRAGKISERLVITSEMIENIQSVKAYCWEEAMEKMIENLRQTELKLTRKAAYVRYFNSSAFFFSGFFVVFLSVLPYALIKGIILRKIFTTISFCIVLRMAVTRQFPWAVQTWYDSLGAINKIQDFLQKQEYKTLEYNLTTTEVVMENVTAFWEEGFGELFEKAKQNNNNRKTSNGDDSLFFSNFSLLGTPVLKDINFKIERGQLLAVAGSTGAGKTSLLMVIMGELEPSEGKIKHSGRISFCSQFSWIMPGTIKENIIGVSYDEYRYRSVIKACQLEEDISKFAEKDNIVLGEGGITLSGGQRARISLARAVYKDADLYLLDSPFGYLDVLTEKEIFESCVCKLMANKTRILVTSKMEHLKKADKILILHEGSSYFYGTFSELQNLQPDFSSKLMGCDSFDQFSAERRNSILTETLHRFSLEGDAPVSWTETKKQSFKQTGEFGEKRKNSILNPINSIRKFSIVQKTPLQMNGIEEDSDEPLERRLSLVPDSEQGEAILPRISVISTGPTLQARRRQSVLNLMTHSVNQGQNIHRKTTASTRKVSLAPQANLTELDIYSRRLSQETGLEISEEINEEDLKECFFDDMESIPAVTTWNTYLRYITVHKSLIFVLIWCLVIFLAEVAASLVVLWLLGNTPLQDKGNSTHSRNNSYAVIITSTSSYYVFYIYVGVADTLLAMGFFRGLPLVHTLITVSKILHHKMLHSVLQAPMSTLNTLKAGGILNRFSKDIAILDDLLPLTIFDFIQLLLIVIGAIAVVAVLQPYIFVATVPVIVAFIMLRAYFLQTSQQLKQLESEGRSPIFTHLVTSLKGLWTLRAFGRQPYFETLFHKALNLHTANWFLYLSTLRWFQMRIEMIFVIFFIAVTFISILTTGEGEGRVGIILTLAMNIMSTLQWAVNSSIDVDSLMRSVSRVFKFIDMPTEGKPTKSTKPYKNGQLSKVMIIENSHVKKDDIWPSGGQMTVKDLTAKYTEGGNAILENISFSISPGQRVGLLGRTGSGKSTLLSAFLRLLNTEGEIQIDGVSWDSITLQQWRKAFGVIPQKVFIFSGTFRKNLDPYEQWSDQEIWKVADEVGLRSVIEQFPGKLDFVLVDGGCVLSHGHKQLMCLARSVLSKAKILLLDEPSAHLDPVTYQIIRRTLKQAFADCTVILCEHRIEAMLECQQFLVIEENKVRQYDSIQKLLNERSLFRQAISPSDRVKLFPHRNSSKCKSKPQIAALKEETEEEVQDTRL

Take `COc1cccc2c1C(=O)N[C@H](C(=O)NCC[C@H]1CCCCO1)CC(=O)N(C)[C@@H](CC(C)C)C(=O)N(CCC1CCCCC1)CC(=O)N[C@H](Cc1ccccc1)CO2` (racemic) [Example 212, (3R,9S,13S)-3-benzyl-7-(2-cyclohexylethyl)-9-isobutyl-16-methoxy-10-methyl-5,8,11,15-tetraoxo-N-(2-((RS)-tetrahydro-2H-pyran-2-yl)ethyl)-2,3,4,5,6,7,8,9,10,11,12,13,14,15-tetradecahydrobenzo[p][1]oxa[4,7,10,14]tetraazacycloheptadecine-13-carboxamide]: the EC50 (as a rule, the concentration needed to bring the measured effect to its halfway point) came to 292 nM and the Emax – broadly, the greatest response seen or fitted, relative to the assay's reference – amounted to 130%.

For `COc1cccc2c1C(=O)N[C@H](C(=O)NCC[C@H]1COc3ccccc3O1)CC(=O)N(C)[C@@H](CC(C)C)C(=O)N(CCC1CCCCC1)CC(=O)N[C@H](Cc1ccccc1)CO2` (racemic) [Example 213, (3R,9S,13S)-3-benzyl-7-(2-cyclohexylethyl)-N-(2-((RS)-2,3-dihydrobenzo[b][1,4]dioxin-2-yl)ethyl)-9-isobutyl-16-methoxy-10-methyl-5,8,11,15-tetraoxo-2,3,4,5,6,7,8,9,10,11,12,13,14,15-tetradecahydrobenzo[p][1]oxa[4,7,10,14]tetraazacycloheptadecine-13-carboxamide], the EC50 came out at 292 nM and the Emax was determined as 100%.

`COc1ccc(CCNC(=O)[C@@H]2CC(=O)N(C)[C@@H](CC(C)C)C(=O)N(CCC3CCCCC3)CC(=O)N[C@H](Cc3ccccc3)COc3cccc(OC)c3C(=O)N2)cc1` (racemic) [Example 219, (3R,9S,13RS)-3-benzyl-7-(2-cyclohexylethyl)-9-isobutyl-16-methoxy-N-(4-methoxyphenethyl)-10-methyl-5,8,11,15-tetraoxo-2,3,4,5,6,7,8,9,10,11,12,13,14,15-tetradecahydrobenzo[p][1]oxa[4,7,10,14]tetraazacycloheptadecine-13-carboxamide]: the concentration giving a half-maximal response (EC50) was found to be 206 nM and the maximal response (Emax) is 182%.

Regarding `CN1C(=O)C[C@@H](C(=O)NCCc2ccc3c(c2)OCO3)NC(=O)c2c(ccc3ccccc23)OC[C@@H](Cc2ccccc2)NC(=O)CN(C[C@@H]2CCCCO2)C(=O)[C@@H]1CC1CCCC1` (racemic) [Example 284, (3RS,7S,13R)-N-(2-(benzo[d][1,3]dioxol-5-yl)ethyl)-13-benzyl-7-(cyclopentylmethyl)-6-methyl-1,5,8,11-tetraoxo-9-(((S)-tetrahydro-2H-pyran-2-yl)methyl)-1,2,3,4,5,6,7,8,9,10,11,12,13,14-tetradecahydronaphtho[1,2-p][1]oxa[4,7,10,14]tetraazacycloheptadecine-3-carboxamide], the Emax turned out to be 136%.

As to `CN1C(=O)C[C@@H](C(=O)NCCc2ccc3c(c2)OCO3)NC(=O)c2c(ccc3ccccc23)OC[C@@H](Cc2ccccc2)NC(=O)CN(C[C@@H]2CCCCO2)C(=O)[C@@H]1CC1CCCCC1` (racemic) [Example 285, (3RS,7S,13R)-N-(2-(benzo[d][1,3]dioxol-5-yl)ethyl)-13-benzyl-7-(cyclohexylmethyl)-6-methyl-1,5,8,11-tetraoxo-9-(((S)-tetrahydro-2H-pyran-2-yl)methyl)-1,2,3,4,5,6,7,8,9,10,11,12,13,14-tetradecahydronaphtho[1,2-p][1]oxa[4,7,10,14]tetraazacycloheptadecine-3-carboxamide], the maximum response (Emax) was 118%.

As for `CN1C(=O)C[C@@H](C(=O)NCCc2ccc3c(c2)OCO3)NC(=O)c2c(ccc3ccccc23)OC[C@@H](Cc2ccccc2)NC(=O)CN(C[C@H]2CCCCO2)C(=O)[C@@H]1CC1CCCC1` (racemic) [Example 286, (3RS,7S,13R)-N-(2-(benzo[d][1,3]dioxol-5-yl)ethyl)-13-benzyl-7-(cyclopentylmethyl)-6-methyl-1,5,8,11-tetraoxo-9-(((R)-tetrahydro-2H-pyran-2-yl)methyl)-1,2,3,4,5,6,7,8,9,10,11,12,13,14-tetradecahydronaphtho[1,2-p][1]oxa[4,7,10,14]tetraazacycloheptadecine-3-carboxamide], the Emax was found to be 144%.

Regarding `CN1C(=O)C[C@@H](C(=O)NCCc2ccc3c(c2)OCO3)NC(=O)c2c(ccc3ccccc23)OC[C@@H](Cc2ccccc2)NC(=O)CN(C[C@H]2CCCCO2)C(=O)[C@@H]1CC1CCCCC1` (racemic) [Example 287, (3RS,7S,13R)-N-(2-(benzo[d][1,3]dioxol-5-yl)ethyl)-13-benzyl-7-(cyclohexylmethyl)-6-methyl-1,5,8,11-tetraoxo-9-(((R)-tetrahydro-2H-pyran-2-yl)methyl)-1,2,3,4,5,6,7,8,9,10,11,12,13,14-tetradecahydronaphtho[1,2-p][1]oxa[4,7,10,14]tetraazacycloheptadecine-3-carboxamide], the EC50 was 207 nM and the Emax came out at 154%.

`CN1C(=O)C[C@@H](C(=O)NCCc2ccc3c(c2)OCO3)NC(=O)c2c(ccc3ccccc23)OC[C@@H](Cc2ccccc2)NC(=O)CN(CC[C@H]2CCCCO2)C(=O)[C@@H]1CC1CCCC1` (racemic) [Example 288, (3RS,7S,13R)-N-(2-(benzo[d][1,3]dioxol-5-yl)ethyl)-13-benzyl-7-(cyclopentylmethyl)-6-methyl-1,5,8,11-tetraoxo-9-(2-((SR)-tetrahydro-2H-pyran-2-yl)ethyl)-1,2,3,4,5,6,7,8,9,10,11,12,13,14-tetradecahydronaphtho[1,2-p][1]oxa[4,7,10,14]tetraazacycloheptadecine-3-carboxamide]: the concentration for a half-maximal effect (EC50) was determined as 147 nM and the Emax was 175%.

Turning to `CN1C(=O)C[C@@H](C(=O)NCCc2ccc3c(c2)OCO3)NC(=O)c2c(ccc3ccccc23)OC[C@@H](Cc2ccccc2)NC(=O)CN(CC[C@H]2CCCCO2)C(=O)[C@@H]1CC1CCCCC1` (racemic) [Example 289, (3RS,7S,13R)-N-(2-(benzo[d][1,3]dioxol-5-yl)ethyl)-13-benzyl-7-(cyclohexylmethyl)-6-methyl-1,5,8,11-tetraoxo-9-(2-((SR)-tetrahydro-2H-pyran-2-yl)ethyl)-1,2,3,4,5,6,7,8,9,10,11,12,13,14-tetradecahydronaphtho[1,2-p][1]oxa[4,7,10,14]tetraazacycloheptadecine-3-carboxamide], the EC50 amounted to 186 nM and the Emax was 160%.

As to `CN1C(=O)C[C@@H](C(=O)NCCc2ccc3c(c2)OCO3)NC(=O)c2c(ccc3ccccc23)OC[C@@H](Cc2ccccc2)NC(=O)CN(CCC2CCCCC2)C(=O)[C@@H]1CC1CCCC1` (racemic) [Example 290, (3RS,7S,13R)-N-(2-(benzo[d][1,3]dioxol-5-yl)ethyl)-13-benzyl-9-(2-cyclohexylethyl)-7-(cyclopentylmethyl)-6-methyl-1,5,8,11-tetraoxo-1,2,3,4,5,6,7,8,9,10,11,12,13,14-tetradecahydronaphtho[1,2-p][1]oxa[4,7,10,14]tetraazacycloheptadecine-3-carboxamide], the Emax stood at 260%.

Turning to `CN1C(=O)C[C@@H](C(=O)NCCc2ccc3c(c2)OCO3)NC(=O)c2c(ccc3ccccc23)OC[C@@H](Cc2ccccc2)NC(=O)CN(CCC2CCCCC2)C(=O)[C@@H]1CC1CCCCC1` (racemic) [Example 291, (3RS,7S,13R)-N-(2-(benzo[d][1,3]dioxol-5-yl)ethyl)-13-benzyl-9-(2-cyclohexylethyl)-7-(cyclohexylmethyl)-6-methyl-1,5,8,11-tetraoxo-1,2,3,4,5,6,7,8,9,10,11,12,13,14-tetradecahydronaphtho[1,2-p][1]oxa[4,7,10,14]tetraazacycloheptadecine-3-carboxamide], the concentration giving a half-maximal response (EC50) turned out to be 109 nM and the maximal response (Emax) turned out to be 210%.
